Assay results reported in US12162858B2, “Quinoline derivatives as inhibitors of AXL/MER RTK and CSF1R” (QURIENT CO., LTD., priority 2018, dated 2024).

What follows are compounds tested against T1, Axl (Homo sapiens, UniProt P30530) (assay: Cellular Axl inhibition ELISA (p-Axl, Gas6-induced) using H1299 cells). Conditions: read-out: Cellular Axl activity by H1299 Elisa (IC50).
T1 sequence (P30530 26-894): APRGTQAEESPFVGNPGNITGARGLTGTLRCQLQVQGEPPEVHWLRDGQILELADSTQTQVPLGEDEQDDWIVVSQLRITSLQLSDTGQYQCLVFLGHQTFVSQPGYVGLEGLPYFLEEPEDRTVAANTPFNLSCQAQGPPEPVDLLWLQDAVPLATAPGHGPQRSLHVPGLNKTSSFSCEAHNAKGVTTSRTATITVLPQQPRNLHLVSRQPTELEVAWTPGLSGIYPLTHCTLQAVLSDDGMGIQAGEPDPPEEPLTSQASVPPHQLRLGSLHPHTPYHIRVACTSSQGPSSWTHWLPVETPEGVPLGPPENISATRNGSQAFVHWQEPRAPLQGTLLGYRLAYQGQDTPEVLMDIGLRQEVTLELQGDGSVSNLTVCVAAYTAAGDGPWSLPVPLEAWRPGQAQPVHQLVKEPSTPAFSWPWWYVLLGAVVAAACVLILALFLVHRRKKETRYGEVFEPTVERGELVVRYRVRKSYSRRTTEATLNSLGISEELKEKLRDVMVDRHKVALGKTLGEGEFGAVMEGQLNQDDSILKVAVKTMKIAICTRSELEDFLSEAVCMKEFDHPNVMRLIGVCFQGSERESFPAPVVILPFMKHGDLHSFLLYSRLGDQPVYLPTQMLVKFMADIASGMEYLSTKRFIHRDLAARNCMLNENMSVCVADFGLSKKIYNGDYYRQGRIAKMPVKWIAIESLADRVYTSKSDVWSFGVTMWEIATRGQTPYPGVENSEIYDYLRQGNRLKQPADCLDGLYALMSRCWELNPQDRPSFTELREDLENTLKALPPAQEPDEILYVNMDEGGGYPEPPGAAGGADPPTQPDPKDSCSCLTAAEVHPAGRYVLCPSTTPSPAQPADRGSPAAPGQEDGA
Type: cell-based
Set-up: especially H1299 cell endogenously expresses Axl; endogenous in cells; host or cells: H1299
Experimental: Axl is expressed in several of malignant cancer cells; especially H1299 cell endogenously expresses Axl; and an increased phosphorylation of Axl (p-Axl) can be observed, when induced by the Axl ligand, Ga6.
The H1299 cells should be 40-80% confluent in the cell culture flask. Then cells are washed with DPBS and trypsinized. After centrifugation, the cell pellet is re-suspended with pre-warmed culture medium (RPMI1640, 10% FBS) and cells are separated by pipetting 6 times up and down with a 10 ml serological pipette. The cell suspension was diluted to a final concentration of 1.25×10^5 cells/ml. Then 80 μl/well cell suspension is added to the plate. Cell-plates are incubated at 37° C./5% CO2 overnight. Compounds were dissolved by DMSO to 10 mM, and kept in nitrogen cabinet. Prepare the compounds stock plate, the reference compounds concentration starts at 0.50 mM (5 μl+95 μl DMSO), and the tested compounds start at 1.5 mM (6 μl+34 μl DMSO); Then make a 3-fold dilution series (10 doses) compounds. Then dilute compounds by the medium in the mid plate (2 μl compounds+198 μl medium). Transfer 20 μl diluted compounds from mid plate to the cell coated plate. Cell-plates are incubated at 37° C./5% CO2 for 24 h. Add 25 μl of Human Gas6 (1000 ng/ml) to 96-well plate; the final concentration of Human Gas6 is 200 ng/ml. Incubate the plates at 37° C./5% CO2 for 1 h. Remove medium and wash cells once with 300 ul/well ice-cold 1×PBS. Then remove PBS and add 100 μl/well ice-cold 1× Cell Lysis Buffer to 96-well plate. The plate is shaken for 40 min at 4° C. Then plates can be stored at −20° C. After the micro-wells strips have reached room temperature, break off the required number of micro-wells. Place the micro-wells in the strip holder. Unused micro-wells must be resealed and stored at 4° C. immediately. Add 60 μl of cell lysate to the appropriate well. Seal with tape and press firmly onto top of micro-wells. Incubate the plate at 37° C. for 2 h. Gently remove the tape and wash wells 5 times with 1× Wash Buffer, 300 μl each time for each well. Add 100 μl of reconstituted Detection Antibody (green color) to each well. Seal with tape and incubate the plate at 37° C. for 1 h. Repeat wash procedure. Add 100 μl of reconstituted HRP Linked secondary antibody to each well. Seal with tape and incubate the plate at 37° C. for 30 min. Repeat wash procedure. Add 100 μl of TMB Substrate to each well. Seal with tape and incubate the plate at 37° C. for 15 min. Add 100 μl of STOP Solution to each well. Shake gently for a few seconds. Read absorbance at 450 nm within 30 min after adding STOP Solution. Calculations and Formulas: The following calculations and formulas are used for data analysis using XL Fit software: The curve fitting was made using the Sigmoidal Dose-Response Model (Fit model, 205).

IC50 [nM] | Compound
< 500 | COc1cc2nccc(Oc3ccc(NC(=O)c4nn(CC(C)O)cc4OCC4CCC4)nc3)c2cc1OC (stereo not drawn) [Compound 163]
< 500 | CCCn1cc(OCC2CCOCC2)c(C(=O)Nc2ccc(Oc3ccnc4cc(OC)c(OC)cc34)cn2)n1 [Compound 164]
< 500 | CCCn1cc(OCCN(C)C)c(C(=O)Nc2ccc(Oc3ccnc4cc(OC)c(OC)cc34)c(F)c2)n1 [Compound 165]
